The experiment concerns L1210 leukemia ip in BDF1 mice, survival T/C. The experiment in a line: NCI In Vivo Anticancer Drug Screen. Data for tumor model L1210 Leukemia (intraperitoneal) in B6D2F1 (BDF1) mice. As to conditions: endpoint: mean survival time, higher = longer survival. The procedure, abridged:
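Ratio derived from survival: compound-dosed mice over vehicle-dosed mice, all bearing a transplantable tumor.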

[1] abbreviates: dose: 100.0 mg/kg/injection, schedule: Q01DX009 (ip), vehicle: Klucel (hydroxypropylcellulose) (HPC).
[2] abbreviates: dose: 100.0 mg/kg/injection, schedule: Q01DX001 (ip), vehicle: carboxymethylcellulose (CMC).
[3] abbreviates: dose: 200.0 mg/kg/injection, schedule: Q01DX001 (ip), vehicle: carboxymethylcellulose (CMC).

Several values for one entry are separate records, joined by “and”; a condition that tells them apart may be missing. Equal entries are not always repeated. Inconclusive results and toxic doses are left out.

14 compounds from PubChem BioAssay AID248 (DTP/NCI, 2004) can be followed below.

Regarding `COC(=O)NC1CC(OC2CC(O)(C(C)=O)Cc3c(O)c4c(c(O)c32)C(=O)c2c(OC)cccc2C4=O)OC(C)C1O` (stereo not drawn), the T/C by setting is: (dose: 2.0 mg/kg/injection, schedule: Q04DX003 (ip), vehicle: water) 105 % of control; (dose: 3.12 mg/kg/injection, schedule: Q01DX009 (ip), vehicle: saline with Tween-80) 103 % of control; (dose: 4.0 mg/kg/injection, schedule: Q04DX003 (ip), vehicle: water) 106 % of control; (dose: 6.25 mg/kg/injection, schedule: Q01DX009 (ip), vehicle: saline with Tween-80) 178 % of control; (dose: 8.0 mg/kg/injection, schedule: Q04DX003 (ip), vehicle: water) 112 % of control; (dose: 12.5 mg/kg/injection, schedule: Q01DX009 (ip), vehicle: saline with Tween-80) 124 % of control. The T/C (dose: 16.0 mg/kg/injection, schedule: Q04DX003 (ip), vehicle: water) was 109 % of control and 111 % of control; the T/C (dose: 18.75 mg/kg/injection, schedule: Q04DX003 (ip), vehicle: saline with Tween-80) was 112 % of control; the T/C (dose: 25.0 mg/kg/injection, schedule: Q01DX009 (ip), vehicle: saline with Tween-80) was 120 % of control; the T/C (dose: 32.0 mg/kg/injection, schedule: Q04DX003 (ip), vehicle: water) was 110 % of control; the T/C (dose: 37.5 mg/kg/injection, schedule: Q04DX003 (ip), vehicle: saline with Tween-80) was 118 % of control; the T/C (dose: 50.0 mg/kg/injection, schedule: Q01DX009 (ip), vehicle: saline with Tween-80) was 122 % of control. The T/C is, setting by setting: (dose: 64.0 mg/kg/injection, schedule: Q04DX003 (ip), vehicle: water) 110 % of control; (dose: 75.0 mg/kg/injection, schedule: Q04DX003 (ip), vehicle: saline with Tween-80) 118 % of control; (dose: 150.0 mg/kg/injection, schedule: Q04DX003 (ip), vehicle: saline with Tween-80) 115 % of control; (dose: 125.0 micrograms/kg/injection, schedule: Q04DX003 (ip), vehicle: water) 102 % of control; (dose: 250.0 micrograms/kg/injection, schedule: Q04DX003 (ip), vehicle: water) 107 % of control; (dose: 500.0 micrograms/kg/injection, schedule: Q04DX003 (ip), vehicle: water) 101 % of control. The T/C is, setting by setting: (dose: 1000.0 micrograms/kg/injection, schedule: Q04DX003 (ip), vehicle: water) 103 % of control; (dose: 2000.0 micrograms/kg/injection, schedule: Q04DX003 (ip), vehicle: water) 106 % of control.
For `CC(=O)NC(CSCc1ccccc1)(SCc1ccccc1)C(=O)O` (stereo not drawn), the T/C (dose: 100.0 mg/kg/injection, schedule: Q01DX001 (ip), vehicle: Klucel (hydroxypropylcellulose) (HPC)) is 92 % of control; the T/C (dose: 200.0 mg/kg/injection, schedule: Q01DX001 (ip), vehicle: Klucel (hydroxypropylcellulose) (HPC)) was 90 % of control; the T/C (dose: 400.0 mg/kg/injection, schedule: Q01DX001 (ip), vehicle: Klucel (hydroxypropylcellulose) (HPC)) was 92 % of control.
Turning to `O=C(CCl)Nc1ccccn1`, the T/C was 97 % of control (dose: 100.0 mg/kg/injection, schedule: Q04DX003 (ip), vehicle: saline); 97 % of control (dose: 200.0 mg/kg/injection, schedule: Q04DX003 (ip), vehicle: saline); 88 % of control (dose: 400.0 mg/kg/injection, schedule: Q04DX003 (ip), vehicle: saline).
With `Cc1ccc(C)c(NC(=O)Nc2ccc(Cl)cc2)c1`, the T/C is 96 % of control (dose: 100.0 mg/kg/injection, schedule: Q01DX009 (ip), vehicle: gum acacia); 98 % of control (dose: 100.0 mg/kg/injection, schedule: Q04DX003 (ip), vehicle: gum acacia); 100 % of control (dose: 200.0 mg/kg/injection, schedule: Q01DX009 (ip), vehicle: gum acacia); 90 % of control (dose: 200.0 mg/kg/injection, schedule: Q04DX003 (ip), vehicle: gum acacia); 96 % of control (dose: 400.0 mg/kg/injection, schedule: Q01DX009 (ip), vehicle: gum acacia); 95 % of control (dose: 400.0 mg/kg/injection, schedule: Q04DX003 (ip), vehicle: gum acacia).
For the compound `CSc1ccc(NC(=O)Nc2cccc(C)c2C)cc1`, the T/C was 92 % of control under setting [1]; 95 % of control (dose: 200.0 mg/kg/injection, schedule: Q01DX009 (ip), vehicle: Klucel (hydroxypropylcellulose) (HPC)); 103 % of control (dose: 400.0 mg/kg/injection, schedule: Q01DX009 (ip), vehicle: Klucel (hydroxypropylcellulose) (HPC)).
In the case of `O=[N+]([O-])c1cccc(Cl)c1O`, the T/C runs as follows: (dose: 100.0 mg/kg/injection, schedule: Q01DX001 (ip), vehicle: gum acacia) 98 % of control; (dose: 200.0 mg/kg/injection, schedule: Q01DX001 (ip), vehicle: gum acacia) 100 % of control.
Take `O=[N+]([O-])c1ccccc1N=Nc1c(O)[nH]c2c(Cl)cc(Cl)cc12`: the T/C (dose: 100.0 mg/kg/injection, schedule: Q01DX001 (ip), vehicle: saline) was 105 % of control.
In the case of `ONC(=NCc1ccccc1)c1ccccc1`, the T/C runs as follows: under setting [2], 97 % of control; under setting [3], 103 % of control.
Take `CCCCCCCCCCCC[n+]1cccc2ccccc21`: the T/C is, setting by setting: (dose: 0.13 mg/kg/injection, schedule: Q01DX Z (ip), vehicle: carboxymethylcellulose (CMC)) 112 % of control; (dose: 0.25 mg/kg/injection, schedule: Q01DX Z (ip), vehicle: carboxymethylcellulose (CMC)) 96 % of control; (dose: 0.25 mg/kg/injection, schedule: Q04DX003 (ip), vehicle: saline) 97 % of control; (dose: 0.5 mg/kg/injection, schedule: Q01DX001 (ip), vehicle: saline) 93 % of control; (dose: 0.5 mg/kg/injection, schedule: Q01DX Z (ip), vehicle: carboxymethylcellulose (CMC)) 98 % of control; (dose: 0.5 mg/kg/injection, schedule: Q04DX003 (ip), vehicle: saline) 92 % of control. In addition, the T/C was 92 % of control (dose: 0.7 mg/kg/injection, schedule: Q01DX009 (ip), vehicle: saline); 88 % of control (dose: 1.0 mg/kg/injection, schedule: Q01DX001 (ip), vehicle: saline); 108 % of control (dose: 1.0 mg/kg/injection, schedule: Q01DX015 (ip), vehicle: carboxymethylcellulose (CMC)); 98 % of control (dose: 1.0 mg/kg/injection, schedule: Q01DX Z (ip), vehicle: carboxymethylcellulose (CMC)); 108 % of control (dose: 1.0 mg/kg/injection, schedule: Q04DX003 (ip), vehicle: saline); 94 % of control (dose: 1.4 mg/kg/injection, schedule: Q04DX003 (ip), vehicle: saline). Moreover, the T/C (dose: 2.0 mg/kg/injection, schedule: Q01DX015 (ip), vehicle: carboxymethylcellulose (CMC)) was 106 % of control.
For the compound `Nc1cccc2c1-c1ccccc1/C2=N\O`, the T/C is, setting by setting: under setting [2], 97 % of control; under setting [3], 105 % of control; (dose: 400.0 mg/kg/injection, schedule: Q01DX001 (ip), vehicle: carboxymethylcellulose (CMC)) 103 % of control.
As to `C=C1C(=O)O[C@@H]2C[C@@H](C)[C@@H]3CC(=O)OC[C@@]3(C)C[C@H]12`, the T/C was 95 % of control (dose: 100.0 mg/kg/injection, schedule: Q04DX003 (ip), vehicle: saline with Tween-80) and 97 % of control (dose: 200.0 mg/kg/injection, schedule: Q04DX003 (ip), vehicle: saline with Tween-80).
For the compound `CCOC(=O)C1C(C)NC(=S)NC1c1ccccc1` (stereo not drawn), the T/C by setting is: (dose: 100.0 mg/kg/injection, schedule: Q04DX002 (ip), vehicle: Klucel (hydroxypropylcellulose) (HPC)) 90 % of control; (dose: 200.0 mg/kg/injection, schedule: Q04DX002 (ip), vehicle: Klucel (hydroxypropylcellulose) (HPC)) 93 % of control; (dose: 400.0 mg/kg/injection, schedule: Q04DX002 (ip), vehicle: Klucel (hydroxypropylcellulose) (HPC)) 93 % of control.
As for `O=C1CCCC(=O)C1C(C[N+](=O)[O-])c1ccccc1` (stereo not drawn), the T/C is, setting by setting: (dose: 12.5 mg/kg/injection, schedule: Q01DX009 (ip), vehicle: Klucel (hydroxypropylcellulose) (HPC)) 97 % of control; (dose: 25.0 mg/kg/injection, schedule: Q01DX009 (ip), vehicle: Klucel (hydroxypropylcellulose) (HPC)) 93 % of control; (dose: 50.0 mg/kg/injection, schedule: Q01DX009 (ip), vehicle: Klucel (hydroxypropylcellulose) (HPC)) 90 % of control; under setting [1], 88 % of control; (dose: 100.0 mg/kg/injection, schedule: Q04DX003 (ip), vehicle: Klucel (hydroxypropylcellulose) (HPC)) 98 % of control.
In the case of `CO[C@H]1C=CC2=CCN3CCC4=C(CC(=O)OC4)[C@]23C1`, the T/C is 104 % of control (dose: 10.0 mg/kg/injection, schedule: Q01DX001 (ip), vehicle: saline) and 96 % of control (dose: 20.0 mg/kg/injection, schedule: Q01DX001 (ip), vehicle: saline).
